Laboratory results: patent US20100137313A1 (ASTRAZENECA AB, priority 2008, published 2010)

What follows are molecules tested against S. pneumoniae Topoisomerase IV ATPase (ParE) (Streptococcus pneumoniae serotype 4, UniProt Q59961) (assay: S. pneumoniae Topoisomerase IV ATPase inhibition). Settings: values marked * are an average of two or more data points, read-out: % Inh (13 μM) of S. pneumoniae Topoisomerase IV ATPase.
Format: biochemical
Summary of the method: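 S. pneumoniae ParE (1.25 nM) ATPase with 160 μM ATP and 5 μg/ml sheared DNA in pH 8.0 Tris, Mg2+, DTT, Brij-35; phosphate detected by malachite green/molybdate at 650 nm. Normalised to 2% DMSO (0%) and 20 μM EDTA (100%); IC50 from 10 concentrations.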

Sequence of S. pneumoniae Topoisomerase IV ATPase (ParE) (Q59961 whole entry): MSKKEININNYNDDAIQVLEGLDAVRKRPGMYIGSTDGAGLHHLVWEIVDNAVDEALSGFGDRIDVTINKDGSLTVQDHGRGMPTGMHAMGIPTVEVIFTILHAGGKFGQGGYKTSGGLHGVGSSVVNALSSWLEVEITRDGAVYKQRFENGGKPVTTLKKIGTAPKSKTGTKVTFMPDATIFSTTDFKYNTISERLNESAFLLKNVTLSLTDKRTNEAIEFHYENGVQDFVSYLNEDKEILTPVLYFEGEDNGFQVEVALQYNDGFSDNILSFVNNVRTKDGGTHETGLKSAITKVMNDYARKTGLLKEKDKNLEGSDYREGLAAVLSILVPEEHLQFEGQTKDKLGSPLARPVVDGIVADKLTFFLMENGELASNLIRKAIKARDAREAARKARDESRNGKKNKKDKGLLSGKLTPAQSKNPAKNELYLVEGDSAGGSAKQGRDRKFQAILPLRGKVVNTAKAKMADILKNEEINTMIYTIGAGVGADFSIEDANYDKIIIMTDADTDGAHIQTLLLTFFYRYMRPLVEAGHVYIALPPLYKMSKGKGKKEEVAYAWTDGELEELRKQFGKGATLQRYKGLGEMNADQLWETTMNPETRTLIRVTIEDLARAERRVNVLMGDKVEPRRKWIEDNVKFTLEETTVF

Q: How did the inhibition at 13 µM turn out when COc1nc(OC)c(-c2cnc(Nc3ccc(F)c(Cl)c3)nc2-n2ccc(C(F)(F)F)n2)cc1C(=O)O [Example 1132, 5-(2-(3-chloro-4-fluorophenylamino)-4-(3-(trifluoromethyl)-1H-pyrazol-1-yl)pyrimidin-5-yl)-2,6-dimethoxynicotinic acid] was run?
A: Its inhibition at 13 µM is 100%.

Q: With COc1cc(Nc2ncc(-c3cncc(C(=O)NCC(O)CO)c3)c(-n3nc(C(F)(F)F)cc3C)n2)cc(C(F)(F)F)c1 (centres unmarked) [Example 936, N-(2,3-dihydroxypropyl)-5-(2-(3-methoxy-5-(trifluoromethyl)phenylamino)-4-(5-methyl-3-(trifluoromethyl)-1H-pyrazol-1-yl)pyrimidin-5-yl)nicotinamide] as the molecule, how does the inhibition at 13 µM read?
A: Its inhibition at 13 µM is 100%.

Q: With COc1cc(Nc2ncc(-c3cncc(C(=O)O)c3)c(N3CCOCC3)n2)cc(-n2nnnc2C)c1 [Example 445] as the molecule, how does the inhibition at 13 µM read?
A: The inhibition at 13 µM was 34%.

Q: How did the inhibition at 13 µM turn out when Cc1cc(C(F)(F)F)nn1-c1nc(Nc2ccc(F)c(Cl)c2)ncc1-c1cnc(OCCS(C)(=O)=O)c(C(=O)O)c1 [Example 956, 5-(2-(3-chloro-4-fluorophenylamino)-4-(5-methyl-3-(trifluoromethyl)-1H-pyrazol-1-yl)pyrimidin-5-yl)-2-(2-(methylsulfonyl)ethoxy)nicotinic acid] was run?
A: The inhibition at 13 µM was 100%.

Q: Which inhibition at 13 µM does the source give for Cc1cc(C(F)(F)F)nn1-c1nc(Nc2ccc(F)c(Cl)c2)ncc1-c1ccc(C(=O)O)s1 [Example 1114, 5-[2-[(3-chloro-4-fluorophenyl)amino]-4-[5-methyl-3-(trifluoromethyl)pyrazol-1-yl]pyrimidin-5-yl]thiophene-2-carboxylic acid] here?
A: The inhibition at 13 µM was 100%.

Q: CN(C)CCCNc1nc(Nc2ccc(F)c(Cl)c2)ncc1-c1cccc(C(=O)NCc2ccccc2)c1 [Example 362, N-benzyl-3-(2-(3-chloro-4-fluorophenylamino)-4-(3-(dimethylamino)propylamino)pyrimidin-5-yl) benzamide] was tested. Which inhibition at 13 µM did it give?
A: Its inhibition at 13 µM is 107%.

Q: O=C(O)c1cncc(-c2cnc(Nc3ccc(F)c(Cl)c3)nc2NCC2CCCO2)c1 (centres unmarked) [Example 235, 5-[2-[(3-chloro-4-fluorophenyl)amino]-4-(oxolan-2-ylmethylamino)pyrimidin-5-yl]pyridine-3-carboxylic acid] was tested. Which inhibition at 13 µM did it give?
A: Its inhibition at 13 µM is 81.2%.

Q: Which inhibition at 13 µM does the source give for O=C(O)/C=C/c1cccc(-c2cnc(Nc3ccc(F)c(Cl)c3)nc2NCCCc2nc3ccccc3[nH]2)c1 [Example 289, (E)-3-(3-(4-(3-(1H-benzo[d]imidazol-2-yl)propylamino)-2-(3-chloro-4-fluorophenylamino)-pyrimidin-5-yl)phenyl)acrylic acid] here?
A: Its inhibition at 13 µM is 88.2%.

Q: For CN(C)CCn1cc(C(=O)O)c(=O)c2cc(-c3cnc(Nc4ccc(F)c(Cl)c4)nc3-n3ccc(C(F)(F)F)n3)ccc21 [Example 1070, 6-(2-(3-Chloro-4-fluorophenylamino)-4-(3-(trifluoromethyl)-1H-pyrazol-1-yl)pyrimidin-5-yl)-1-(2-(dimethylamino)ethyl)-4-oxo-1,4-dihydroquinoline-3-carboxylic acid], which inhibition at 13 µM is on record?
A: The inhibition at 13 µM was 93%.

Q: With CN1CCC(Oc2ncc(-c3cnc(Nc4ccc(F)c(Cl)c4)nc3-n3ccc(C(F)(F)F)n3)cc2C(=O)O)C1 (centres unmarked) [Example 789, 5-{2-[(3-chloro-4-fluorophenyl)amino]-4-[3-(trifluoromethyl)-1H-pyrazol-1-yl]pyrimidin-5-yl}-2-[(1-methylpyrrolidin-3-yl)oxy]pyridine-3-carboxylic acid] as the molecule, how does the inhibition at 13 µM read?
A: The inhibition at 13 µM was 99%.

Q: For COc1cc(Nc2ncc(-c3cc(C(=O)O)c(=O)n(CCS(C)(=O)=O)c3)c(-n3ccc(C(F)(F)F)n3)n2)cc(OC)c1 [Example 1095, 5-(2-(3,5-dimethoxyphenylamino)-4-(3-(trifluoromethyl)-1H-pyrazol-1-yl)pyrimidin-5-yl)-1-(2-(methylsulfonyl)ethyl)-2-oxo-1,2-dihydropyridine-3-carboxylic acid], which inhibition at 13 µM is on record?
A: Its inhibition at 13 µM is 100%.

Q: For CCOC(=O)c1cncc(-c2cnc(Nc3ccc(F)c(Cl)c3)nc2NCc2cnn(C)c2)c1 [Example 148, ethyl 5-(2-(3-chloro-4-fluorophenylamino)-4-((1-methyl-1H-pyrazol-4-yl)methylamino)pyrimidin-5-yl)-nicotinate], which inhibition at 13 µM is on record?
A: Its inhibition at 13 µM is 120%.

Q: Which inhibition at 13 µM does the source give for CCN(CC)S(=O)(=O)c1cncc(-c2cnc(Nc3ccc(F)c(Cl)c3)nc2-n2nc(C(F)(F)F)cc2C)c1 [Example 1034] here?
A: The inhibition at 13 µM was 96%.

Q: How did the inhibition at 13 µM turn out when COc1cc(C)cc(Nc2ncc(-c3cc(C(=O)NS(C)(=O)=O)c(=O)n(C)c3)c(-n3ccc(C(F)(F)F)n3)n2)c1 [Example 1173, 5-{2-[(3-methoxy-5-methylphenyl)amino]-4-[3-(trifluoromethyl)-1H-pyrazol-1-yl]pyrimidin-5-yl}-1-methyl-N-(methylsulfonyl)-2-oxo-1,2-dihydropyridine-3-carboxamide] was run?
A: The inhibition at 13 µM was 100%.

Q: Which inhibition at 13 µM does the source give for CC(=O)N1CCN(c2nc(Nc3ccc(F)c(Cl)c3)ncc2-c2cncc(C(=O)O)c2)CC1 [Example 276, 5-(4-(4-acetylpiperazin-1-yl)-2-(3-chloro-4-fluorophenylamino)-pyrimidin-5-yl)nicotinic acid] here?
A: Its inhibition at 13 µM is 80.3%.

Q: Which inhibition at 13 µM does the source give for CNC(=O)CNC(=O)c1cncc(-c2cnc(Nc3ccc(F)c(Cl)c3)nc2-n2nc(C(F)(F)F)cc2C)c1 [Example 930, 5-(2-(3-chloro-4-fluorophenylamino)-4-(5-methyl-3-(trifluoromethyl)-1H-pyrazol-1-yl)pyrimidin-5-yl)-N-(2-(methylamino)-2-oxoethyl)nicotinamide] here?
A: The inhibition at 13 µM was 72%.

Q: For O=S(=O)(c1cncc(-c2cnc(Nc3ccc(F)c(Cl)c3)nc2-n2ccc(C(F)(F)F)n2)c1)N1CCOCC1 [Example 1035], which inhibition at 13 µM is on record?
A: The inhibition at 13 µM was 51%.

Q: Which inhibition at 13 µM does the source give for CONC(=O)c1cncc(-c2cnc(Nc3ccc(F)c(Cl)c3)nc2-n2nc(-c3nccs3)cc2C)c1 [Example 545, 5-{2-[(3-chloro-4-fluorophenyl)amino]-4-[5-methyl-3-(1,3-thiazol-2-yl)-1H-pyrazol-1-yl]pyrimidin-5-yl}-N-methoxypyridine-3-carboxamide] here?
A: Its inhibition at 13 µM is 100%.

Q: With NC(=O)c1cc(-c2cnc(Nc3ccc(F)c(Cl)c3)nc2-n2ccc(C(F)(F)F)n2)ccn1 [Example 496, 4-{2-[(3-chloro-4-fluorophenyl)amino]-4-[3-(trifluoromethyl)-1H-pyrazol-1-yl]pyrimidin-5-yl}pyridine-2-carboxamide] as the molecule, how does the inhibition at 13 µM read?
A: The inhibition at 13 µM was 100%.

Q: With NC(=O)CCNc1nc(Nc2ccc(F)c(Cl)c2)ncc1-c1cncnc1 [Example 42, 3-[[2-[(3-chloro-4-fluorophenyl)amino]-5-pyrimidin-5-ylpyrimidin-4-yl]amino]propanamide] as the molecule, how does the inhibition at 13 µM read?
A: The inhibition at 13 µM was 77.5%.

Q: Which inhibition at 13 µM does the source give for CCOC(=O)c1sc(-c2cnc(Nc3ccc(F)c(Cl)c3)nc2NCCCOC)nc1-c1ccn(C)n1 [Example 508, ethyl 2-{2-[(3-chloro-4-fluorophenyl)amino]-4-[(3-methoxypropyl)amino]pyrimidin-5-yl}-4-(1-methyl-1H-pyrazol-3-yl)-1,3-thiazole-5-carboxylate] here?
A: The inhibition at 13 µM was 0%.

Q: For O=C(O)c1cncc(-c2cnc(Nc3ccc(F)c(Cl)c3)nc2NCCc2nc3ccccc3[nH]2)c1 [Example 258, 5-(4-{[2-(1H-benzimidazol-2-yl)ethyl]amino}-2-[(3-chloro-4-fluorophenyl)amino]-pyrimidin-5-yl)pyridine-3-carboxylic acid], which inhibition at 13 µM is on record?
A: The inhibition at 13 µM was 88%.

Q: Which inhibition at 13 µM does the source give for O=C(O)/C=C/c1cccc(-c2cnc(Nc3ccc(F)c(Cl)c3)nc2NCCc2cn[nH]c2)c1 [Example 268, (2E)-3-[3-(2-[(3-chloro-4-fluorophenyl)amino]-4-{[2-(1H-pyrazol-4-yl)ethyl]amino}pyrimidin-5-yl)phenyl]prop-2-enoic acid] here?
A: Its inhibition at 13 µM is 83%.

Q: COc1ncc(-c2cnc(Nc3ccc(F)c(Cl)c3)nc2NCc2ccncc2C)cn1 [Example 463, N2-(3-chloro-4-fluorophenyl)-2′-methoxy-N4-((3-methylpyridin-4-yl)methyl)-5,5′-bipyrimidine-2,4-diamine] was tested. Which inhibition at 13 µM did it give?
A: Its inhibition at 13 µM is 67%.

Q: With OCC1CCCN(c2nc(Nc3ccc(F)c(Cl)c3)ncc2-c2cncnc2)C1 (centres unmarked) [Example 61, [1-[2-[(3-chloro-4-fluorophenyl)amino]-5-pyrimidin-5-ylpyrimidin-4-yl]piperidin-3-yl]methanol] as the molecule, how does the inhibition at 13 µM read?
A: The inhibition at 13 µM was 74.8%.

Q: How did the inhibition at 13 µM turn out when O=C(O)/C=C/c1cccc(-c2cnc(Nc3ccc(F)c(CO)c3)nc2N2CCOCC2)c1 [Example 516, (2E)-3-{3-[2-{[4-fluoro-3-(hydroxymethyl)phenyl]amino}-4-(morpholin-4-yl)pyrimidin-5-yl]phenyl}prop-2-enoic acid] was run?
A: The inhibition at 13 µM was 98%.

Q: With O=C(O)c1cncc(-c2cnc(Nc3ccc(F)c([N+](=O)[O-])c3)nc2N2CCOCC2)c1 [Example 436] as the molecule, how does the inhibition at 13 µM read?
A: Its inhibition at 13 µM is 69%.

Q: How did the inhibition at 13 µM turn out when CNC(=O)c1cc(-c2cnc(Nc3ccc(F)c(Cl)c3)nc2-n2ccc(C(F)(F)F)n2)cnc1OC [Example 1100, 5-(2-(3-chloro-4-fluorophenylamino)-4-(3-(trifluoromethyl)-1H-pyrazol-1-yl)pyrimidin-5-yl)-2-methoxy-N-methylnicotinamide] was run?
A: The inhibition at 13 µM was 75%.

Q: CNC(=O)c1cncc(-c2cnc(Nc3cc(OC)cc(OC)c3)nc2-n2ccc(C(F)(F)F)n2)c1 [Example 678, 5-{2-[(3,5-dimethoxyphenyl)amino]-4-[3-(trifluoromethyl)-1H-pyrazol-1-yl]pyrimidin-5-yl}-N-methylpyridine-3-carboxamide] was tested. Which inhibition at 13 µM did it give?
A: Its inhibition at 13 µM is 100%.

Q: For NC(=O)c1cncc(-c2cnc(Nc3ccc(F)c(Cl)c3)nc2-n2ccc(C(F)(F)F)n2)c1 [Example 1124, 5-[2-[(3-chloro-4-fluorophenyl)amino]-4-[3-(trifluoromethyl)pyrazol-1-yl]pyrimidin-5-yl]pyridine-3-carboxamide], which inhibition at 13 µM is on record?
A: Its inhibition at 13 µM is 42%.

Q: Which inhibition at 13 µM does the source give for Cc1ccc(Nc2ncc(-c3cccc(/C=C/C(=O)O)c3)c(NCCCN(C)C)n2)cc1C#N [Example 338, (E)-3-(3-(2-(3-cyano-4-methylphenylamino)-4-(3-(dimethylamino)propylamino)pyrimidin-5-yl)phenyl)acrylic acid] here?
A: The inhibition at 13 µM was 58.4%.

Q: CN(C)CCNc1nc(Nc2ccc(F)c(Cl)c2)ncc1-c1cncc(C(=O)O)c1 [Example 220, 5-[2-(3-Chloro-4-fluoro-phenylamino)-4-(2-dimethylamino-ethylamino)-pyrimidin-5-yl]-nicotinic acid] was tested. Which inhibition at 13 µM did it give?
A: The inhibition at 13 µM was 79%.
